In patent US20230331683A1, “INHIBITORS OF SPINSTER HOMOLOG 2 (SPNS2) FOR USE IN THERAPY” (University of Virginia Patent Foundation, priority 2020, published 2023):
Where a name gives a salt, the structure may show the parent alone.

Biological target: mouse SPNS2 (Mus musculus (Mouse), UniProt Q91VM4)
Experiment: S1P Transporter Assay (S1P release from whole cells expressing SPNS2)
Type: cell-based
Settings: in vitro inhibition against SPNS2; HeLa cells expressing mouse SPNS2, S1P release into media after 18 hours; compounds as their pharmaceutical salts
Procedure: Transporter assays are vectorial and therefore require measurement of the transported analyte in different compartments. The S1P transporter SPNS2 only exports S1P, which obviates measuring uptake of S1P into transporter-expressing cells. Thus, transporter activity was determined by quantifying S1P release from whole cells expressing SPNS2. SPNS2 inhibitor potency was assessed using whole cell assays. HeLa cells expressing mouse SPNS2 were used to determine inhibitor potency (IC50). Cells were plated onto 12 well plates and assayed when the cell monolayers became confluent. Cell growth media (RPMI-1640 containing 10% fetal bovine serum) was replaced with 2 mL of serum-free media (RPMI-1640) containing fatty acid free bovine serum albumin (BSA) (0.2 % w/v) and supplemented with 4-deoxypyridoxine (DOP) (1 mM), NaF (2 mM), Na3VO4 (0.2 mM) to inhibit S1P degradation. Test articles (1 × 10-9 - 1 × 10^-4 M) were assayed in duplicate or triplicate. After 18 hours, media was collected, an internal recovery standard (0.005 mL of 5 × 10^-7 M deuterated (d7) S 1P in methanol) was added, the BSA was precipitated with trichloroacetic acid and the bound S1P extracted with methanol. S1P and S1P-d7 were measured by liquid chromatography mass spectrometry. Inhibitor potency at the human SPNS2 ortholog was determined by an analogous assay using U-937 cells, which endogenously express human SPNS2.

mouse SPNS2, sequence (Q91VM4 whole entry): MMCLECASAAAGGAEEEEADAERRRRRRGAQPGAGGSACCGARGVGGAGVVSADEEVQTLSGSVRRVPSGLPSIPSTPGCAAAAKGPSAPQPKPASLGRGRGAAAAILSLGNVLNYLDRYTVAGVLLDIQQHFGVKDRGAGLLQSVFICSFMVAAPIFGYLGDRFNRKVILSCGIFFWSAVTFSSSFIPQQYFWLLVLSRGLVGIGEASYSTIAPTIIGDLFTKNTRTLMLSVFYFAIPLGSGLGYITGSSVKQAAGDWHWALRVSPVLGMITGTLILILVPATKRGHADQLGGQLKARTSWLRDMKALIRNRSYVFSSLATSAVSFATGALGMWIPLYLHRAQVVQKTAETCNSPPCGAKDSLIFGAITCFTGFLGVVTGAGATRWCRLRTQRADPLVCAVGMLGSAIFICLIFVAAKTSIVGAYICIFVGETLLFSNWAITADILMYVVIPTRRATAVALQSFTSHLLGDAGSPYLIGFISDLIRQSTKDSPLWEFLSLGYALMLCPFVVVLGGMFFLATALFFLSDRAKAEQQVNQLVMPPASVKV

| IC50 [nM] | SMILES |
| --- | --- |
| ≤ 2000 | CCCCCCCCCCc1ccc(NC(=O)CCCNC(=N)N)cc1 [Compound 4c, N-decylphenyl)-4-guanidinobutanamide Hydrochloride] |
| ≤ 2000 | CCCCCCCCCCc1ccc(NC(=O)NCCCN)cc1 [Compound 20b, 1-Aminopropyl)-3-(4-decylphenyl)urea Hydrochloride] |
| > 2000 | CCCCCCCCCCc1ccc2oc(CCCN)nc2c1 [Compound 8b, 3-Decylbenzo[d]oxazol-2-yl)propan-1-amine Hydrochloride] |
| > 2000 | CCCCCCCCCCc1ccc2oc(N3CC[C@H](N)C3)nc2c1 [Compound 13n, (S)(5-decylbenzo[d]oxazol-2-yl)pyrrolidin-3-amine Hydrochloride] |
| > 2000 | CCCCCCCCCCc1ccc2oc(NCC3CCNCC3)nc2c1 [Compound 36, 5-decyl-N-(piperidin-4-ylmethyl)benzo[d]oxazol-2-amine] |
| > 2000 | CCCCCCCCCCc1cccc2nc(NCCCN)oc12 [Compound 13v, N^1-decylbenzo[d]oxazol-2-yl)propane-1,3-diamine hydrochloride] |

More lines, now with the values behind:

| SMILES | IC50 [nM] |
| --- | --- |
| CCCCCCCCCCc1ccc(NC(=O)CCCCCN)cc1 [Compound 2f, 6-amino-N-(4-decylphenyl)hexanamide Hydrochloride] | ≤ 2000 |
| CCCCCCCCCCc1ccc(NC(=O)OCCN)cc1 [Compound 23a, 2-Aminoethyl (4-decylphenyl)carbamate Hydrochloride] | > 2000 |
| CCCCCCCCCCCCc1ccc2oc(NCCN)nc2c1 [Compound 13e, N^1-dodecylbenzo[d]oxazol-2-yl)ethane-1,2-diamine hydrochloride] | > 2000 |
| CCCCCCCCCCc1ccc(NC(=O)[C@@H]2CCNC2)cc1 [Compound 2b] | > 2000 |
